We go through 40 compounds from patent US9249131B2, “Modulators of ATP-binding cassette transporters” (Vertex Pharmaceuticals Incorporated, priority 2003, dated 2016).

Where only a bound is given, the exact number is not on record here.

This assay concerns the target T1, ΔF508-CFTR (Homo sapiens, UniProt P13569, DEL508-508).
T1 construct: expressed in transfected cells; host or cells: NIH3T3 mouse fibroblasts stably expressing ΔF508-CFTR for the optical, whole-cell and single-channel assays; Fisher rat epithelial (FRT) cells for Ussing chamber follow-up
The assay is described as follows: Assays for ΔF508-CFTR correction and potentiator properties (membrane potential optical and electrophysiological methods). Conditions: CFTR modulation; for % Activity: % Efficacy; for EC50: tested using the above methods. It is filed as cell-based. An excerpt:
Assays for Detecting and Measuring ΔF508-CFTR Correction and Potentiator Properties of Compounds
A) Membrane Potential Optical Methods for Assaying ΔF508-CFTR Modulation Properties of Compounds
The optical membrane potential assay utilized voltage-sensitive FRET sensors described by Gonzalez and Tsien (See, Gonzales, J. E. and R. Y. Tsien (1995) “Voltage sensing by fluorescence resonance energy transfer in single cells” Biophys J 69 (4): 1272-80, and Gonzalez, J. E. and R. Y. Tsien (1997) “Improved indicators of cell membrane potential that use fluorescence resonance energy transfer” Chem Biol 4 (4): 269-77) in combination with instrumentation for measuring fluorescence changes such as the Voltage/Ion Probe Reader (VIPR) (See, Gonzalez, J. E., K. Oades, et al. (1999) “Cell-based assays and instrumentation for screening ion-channel targets” Drug Discov Today 4 (9): 431-439).
These voltage sensitive assays are based on the change in fluorescence resonant energy transfer (FRET) between the membrane-soluble, voltage-sensitive dye, DiSBAC2 (3), and a fluorescent phospholipid, CC2-DMPE, which is attached to the outer leaflet of the plasma membrane and acts as a FRET donor. Changes in membrane potential (Vm) cause the negatively charged DiSBAC2(3) to redistribute across the plasma membrane and the amount of energy transfer from CC2-DMPE changes accordingly. The changes in fluorescence emission were monitored using VIPR™ II, which is an integrated liquid handler and fluorescent detector designed to conduct cell-based screens in 96- or 384-well microtiter plates.
To identify small molecules that correct the trafficking defect associated with ΔF508-CFTR; a single-addition HTS assay format was developed. The cells were incubated in serum-free medium for 16 hrs at 37° C. in the presence or absence (negative control) of test compound. As a positive control, cells plated in 384-well plates were incubated for 16 hrs at 27° C. to “temperature-correct” ΔF508-CFTR. The cells were subsequently rinsed 3× with Krebs Ringers solution and loaded with the voltage-sensitive dyes. To activate ΔF508-CFTR, […] and the CFTR potentiator, genistein ([…]), were added along with Cl^−-free medium to each well. The addition of Cl^−-free medium promoted Cl^− efflux in response to ΔF508-CFTR activation and the resulting membrane depolarization was optically monitored using the FRET-based voltage-sensor dyes.
To identify potentiators of ΔF508-CFTR, a double-addition HTS assay format was developed. During the first addition, a Cl^−-free medium with or without test compound was added to each well. After 22 sec, a second addition of Cl^−-free medium containing 2-10 µM forskolin was added to activate ΔF508-CFTR. The extracellular Cl^− concentration following both additions was 28 mM, which promoted Cl^− efflux in response to ΔF508-CFTR activation and the resulting membrane depolarization was optically monitored using the FRET-based voltage-sensor dyes.
• Bath Solution #1: (in mM) NaCl 160, KCl 4.5, CaCl2 2, MgCl2 1, HEPES 10, pH 7.4 with NaOH. • Chloride-free bath solution: Chloride salts in Bath Solution #1 are substituted with gluconate salts. • CC2-DMPE: Prepared as a 10 mM stock solution in DMSO and stored at −20° C. • DiSBAC2(3): Prepared as a 10 mM stock in DMSO and stored at −20° C. Cell Culture
NIH3T3 mouse fibroblasts stably expressing ΔF508-CFTR are used for optical measurements of membrane potential. The cells are maintained at 37° C. in 5% CO2 and 90% humidity in Dulbecco's modified Eagle's medium supplemented with 2 mM glutamine, 10% fetal bovine serum, 1×NEAA, β-ME, 1×pen/strep, and 25 mM HEPES in 175 cm^2 culture flasks. For all optical assays, the cells were seeded at 30,000/well in 384-well matrigel-coated plates and cultured for 2 hrs at 37° C. before culturing at 27° C. for 24 hrs. for the potentiator assay. For the correction assays, the cells are cultured at 27° C. or 37° C. with and without compounds for 16-24 hours.

T1 sequence (P13569 with tags, fused parts or gaps DEL508-508): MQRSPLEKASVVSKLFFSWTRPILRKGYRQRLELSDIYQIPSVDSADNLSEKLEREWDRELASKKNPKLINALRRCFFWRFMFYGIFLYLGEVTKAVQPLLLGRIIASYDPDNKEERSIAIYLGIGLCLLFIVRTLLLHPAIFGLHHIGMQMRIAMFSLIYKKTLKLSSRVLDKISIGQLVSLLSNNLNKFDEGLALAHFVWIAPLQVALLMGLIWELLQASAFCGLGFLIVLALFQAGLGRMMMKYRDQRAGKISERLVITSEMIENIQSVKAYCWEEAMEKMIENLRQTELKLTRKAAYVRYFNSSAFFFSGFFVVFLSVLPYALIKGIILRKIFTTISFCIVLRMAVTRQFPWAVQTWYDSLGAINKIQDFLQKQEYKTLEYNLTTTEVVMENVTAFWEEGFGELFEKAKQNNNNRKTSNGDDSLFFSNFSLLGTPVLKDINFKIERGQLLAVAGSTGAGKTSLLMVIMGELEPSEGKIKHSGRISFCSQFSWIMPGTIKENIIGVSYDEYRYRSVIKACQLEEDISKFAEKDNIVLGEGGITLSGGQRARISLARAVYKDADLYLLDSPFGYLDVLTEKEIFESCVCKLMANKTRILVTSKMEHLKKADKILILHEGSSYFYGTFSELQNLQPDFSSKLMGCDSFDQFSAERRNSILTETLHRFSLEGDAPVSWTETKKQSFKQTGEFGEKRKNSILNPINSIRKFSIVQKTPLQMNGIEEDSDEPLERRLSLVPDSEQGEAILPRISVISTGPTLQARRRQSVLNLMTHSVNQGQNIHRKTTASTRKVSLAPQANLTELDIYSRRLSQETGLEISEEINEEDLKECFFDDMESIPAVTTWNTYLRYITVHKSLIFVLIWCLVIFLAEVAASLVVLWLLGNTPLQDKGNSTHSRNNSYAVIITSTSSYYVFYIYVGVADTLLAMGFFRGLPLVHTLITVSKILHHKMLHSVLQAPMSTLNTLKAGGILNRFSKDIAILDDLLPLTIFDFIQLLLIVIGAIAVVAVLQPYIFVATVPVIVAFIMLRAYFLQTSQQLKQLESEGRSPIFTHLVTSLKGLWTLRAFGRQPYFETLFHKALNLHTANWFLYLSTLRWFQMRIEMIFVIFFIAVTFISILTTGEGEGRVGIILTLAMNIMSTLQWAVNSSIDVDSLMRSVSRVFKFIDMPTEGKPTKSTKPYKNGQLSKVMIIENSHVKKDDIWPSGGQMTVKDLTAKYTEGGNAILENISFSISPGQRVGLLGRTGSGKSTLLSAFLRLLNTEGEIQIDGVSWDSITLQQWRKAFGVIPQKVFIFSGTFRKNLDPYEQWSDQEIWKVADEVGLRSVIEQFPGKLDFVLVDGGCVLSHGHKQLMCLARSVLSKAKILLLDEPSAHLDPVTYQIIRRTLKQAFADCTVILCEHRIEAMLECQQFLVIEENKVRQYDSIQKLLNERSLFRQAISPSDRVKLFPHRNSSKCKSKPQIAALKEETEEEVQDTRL

On to `CCC(C(=O)Nc1nc2ccc(C)cc2s1)c1ccccc1` (centres unmarked) [compound 24], for which the “% Activity” value is “+++ (“+++” means >100%)” and the half-maximal effective concentration (EC50) lay within 10 to 25 µM.

As for `O=C(Nc1ncc(Cc2ccccc2)s1)C(c1ccccc1)c1ccccc1` [compound 25], the “% Activity” value is listed as “++ (“++” means between 25% to 100%)” and the EC50 is less than 10 µM.

In the case of `O=C(Nc1ncc(Cc2ccccc2Cl)s1)c1cccc2ccccc12` [compound 26], the “% Activity” value is “++ (“++” means between 25% to 100%)” and the concentration giving a half-maximal response (EC50) was in the range of 10 to 25 µM.

Consider `COc1ccc(Cc2cnc(NC(=O)C(c3ccccc3)c3ccccc3)s2)cc1` [compound 27], for which the “% Activity” value was “++ (“++” means between 25% to 100%)” and the 50% effective concentration (EC50) is less than 10 µM.

For `O=C(Nc1ncc(Cc2ccccc2Cl)s1)c1ccccc1` [compound 28], the “% Activity” value is listed as “++ (“++” means between 25% to 100%)” and the EC50 is 10 to 25 µM.

As for `O=C(Nc1ncc(Cc2ccccc2Cl)s1)C1CCCCC1` [compound 29], the “% Activity” value was “++ (“++” means between 25% to 100%)” and the concentration for a half-maximal effect (EC50) was less than 10 µM.

On to `O=C(Nc1ncc(Cc2cc(Cl)ccc2Cl)s1)C1CCCCC1` [compound 30], for which the “% Activity” value is “+++ (“+++” means >100%)” and the half-maximal effective concentration (EC50) is less than 10 µM.

Turning to `O=C(Cc1ccccc1)Nc1ncc(Cc2cccc(Cl)c2)s1` [compound 31], the “% Activity” value is listed as “++ (“++” means between 25% to 100%)” and the half-maximal effective concentration (EC50) was less than 10 µM.

Turning to `O=C(Cc1ccccc1)Nc1ncc(Cc2ccccc2)s1` [compound 32], the “% Activity” value is “++ (“++” means between 25% to 100%)” and the 50% effective concentration (EC50) was in the range of 10 to 25 µM.

For the compound `O=C(Nc1ncc(Cc2ccc(Cl)cc2)s1)c1ccccc1Cl` [compound 33], the “% Activity” value was “++ (“++” means between 25% to 100%)” and the half-maximal effective concentration (EC50) lay in the range of 10 to 25 µM.

Turning to `CC(C)C(C(=O)Nc1nc(-c2ccncc2)cs1)c1ccc(F)cc1F` (centres unmarked) [compound 34], the “% Activity” value is “++ (“++” means between 25% to 100%)” and the EC50 fell in the range of 10 to 25 µM.

For the compound `CC(C)C(C(=O)Nc1nc(-c2ccncc2)cs1)c1ccccc1` (centres unmarked) [compound 35], the “% Activity” value is reported as “++ (“++” means between 25% to 100%)” and the EC50 is 10 to 25 µM.

Regarding `N#CCC(=O)Nc1ncc(Cc2cccc(Cl)c2)s1` [compound 36], the “% Activity” value is recorded as “++ (“++” means between 25% to 100%)” and the EC50 was in the range of 10 to 25 µM.

`O=C(Nc1ncc(Cc2ccccc2Cl)s1)C(c1ccccc1)c1ccccc1` [compound 37]: the “% Activity” value is recorded as “+++ (“+++” means >100%)” and the half-maximal effective concentration (EC50) was less than 10 µM.

With `O=C(Nc1ncc(Cc2ccc(Cl)cc2)s1)C(c1ccccc1)c1ccccc1` [compound 38], the “% Activity” value is given as “++ (“++” means between 25% to 100%)” and the half-maximal effective concentration (EC50) is less than 10 µM.

Take `Cc1ccc(C(=O)Nc2nc(-c3ccc(C)cc3)c(-c3ccccc3)s2)cc1` [compound 39]: the “% Activity” value is recorded as “+++ (“+++” means >100%)” and the EC50 was less than 10 µM.

For `Cc1ccccc1C(=O)Nc1nc2c(C)cccc2s1` [compound 40], the “% Activity” value is reported as “++ (“++” means between 25% to 100%)” and the 50% effective concentration (EC50) is less than 10 µM.

`Cc1cccc2sc(NC(=O)c3ccccc3Cl)nc12` [compound 41]: the “% Activity” value is “++ (“++” means between 25% to 100%)” and the EC50 is less than 10 µM.

Turning to `Cc1cccc2sc(NC(=O)c3cccc(Br)c3)nc12` [compound 42], the “% Activity” value is on record as “++ (“++” means between 25% to 100%)” and the concentration giving a half-maximal response (EC50) was less than 10 µM.

As for `O=C(Nc1nc(-c2ccc(Br)cc2)cs1)c1cccc(Cl)c1` [compound 43], the “% Activity” value is “++ (“++” means between 25% to 100%)” and the EC50 was less than 10 µM.

With `Cc1ccc(C(=O)Nc2nc(-c3ccccc3)c(C)s2)cc1` [compound 44], the “% Activity” value was “+++ (“+++” means >100%)” and the half-maximal effective concentration (EC50) was in the range of 10 to 25 µM.

As for `Cc1ccc(-c2nc(NC(=O)c3ccc(C#N)cc3)sc2-c2ccccc2)cc1` [compound 45], the “% Activity” value was “++ (“++” means between 25% to 100%)” and the EC50 was in the range of 10 to 25 µM.

Take `O=C(Cc1ccccc1)Nc1nc(-c2cccc3ccccc23)cs1` [compound 46]: the “% Activity” value is given as “++ (“++” means between 25% to 100%)” and the 50% effective concentration (EC50) is less than 10 µM.

Turning to `Cc1ccc(C(=O)Nc2nc(-c3ccc(C)cc3)cs2)cc1` [compound 47], the “% Activity” value was “++ (“++” means between 25% to 100%)” and the EC50 was 10 to 25 µM.

In the case of `Cc1ccc(-c2csc(NC(=O)c3ccccc3)n2)cc1` [compound 48], the “% Activity” value is recorded as “+++ (“+++” means >100%)” and the EC50 is less than 10 µM.

Turning to `COc1cccc(C(=O)Nc2nc(-c3ccccc3)cs2)c1` [compound 49], the “% Activity” value was “++ (“++” means between 25% to 100%)” and the EC50 was 10 to 25 µM.

For the compound `CCC(=O)Nc1nc(-c2ccccc2)c(-c2ccccc2)s1` [compound 50], the “% Activity” value is reported as “+++ (“+++” means >100%)” and the EC50 was less than 10 µM.

In the case of `COc1ccccc1C(=O)Nc1nc(-c2ccccc2)c(-c2ccccc2)s1` [compound 51], the “% Activity” value is given as “+++ (“+++” means >100%)” and the concentration for a half-maximal effect (EC50) is less than 10 µM.

As for `Cc1ccc(C(=O)Nc2nc(-c3ccccc3)c(-c3ccccc3)s2)cc1` [compound 52], the “% Activity” value is listed as “+++ (“+++” means >100%)” and the EC50 is less than 10 µM.

With `O=C(Nc1nc(-c2ccccc2)cs1)c1cccc(Cl)c1` [compound 53], the “% Activity” value is “+++ (“+++” means >100%)” and the EC50 was less than 10 µM.

Take `Cc1cccc(Cc2cnc(NC(=O)c3ccccc3Cl)s2)c1` [compound 54]: the “% Activity” value is on record as “++ (“++” means between 25% to 100%)” and the concentration giving a half-maximal response (EC50) was in the range of 10 to 25 µM.

Regarding `O=C(Nc1nc(-c2ccccc2)cs1)C1CCCCC1` [compound 55], the “% Activity” value is “++ (“++” means between 25% to 100%)” and the EC50 lay in the range of 10 to 25 µM.

With `O=C(Nc1ncc(Cc2cccc(Cl)c2Cl)s1)C(c1ccccc1)c1ccccc1` [compound 56], the “% Activity” value was “++ (“++” means between 25% to 100%)” and the EC50 was less than 10 µM.

As for `O=C(Nc1ncc(Cc2cc(Cl)ccc2Cl)s1)C(c1ccccc1)c1ccccc1` [compound 57], the “% Activity” value is “++ (“++” means between 25% to 100%)” and the EC50 is less than 10 µM.

`CCC(C(=O)Nc1nc(-c2ccncc2)cs1)c1ccccc1` (centres unmarked) [compound 58]: the “% Activity” value is recorded as “++ (“++” means between 25% to 100%)” and the 50% effective concentration (EC50) was in the range of 10 to 25 µM.

In the case of `O=C(O)c1ccccc1C(=O)Nc1nc(-c2ccccc2)c(-c2ccccc2)s1` [compound 59], the “% Activity” value is listed as “++ (“++” means between 25% to 100%)” and the concentration for a half-maximal effect (EC50) fell in the range of 10 to 25 µM.

For the compound `CC(CC(=O)O)CC(=O)Nc1nc(-c2ccccc2)c(-c2ccccc2)s1` (centres unmarked) [compound 60], the “% Activity” value was “++ (“++” means between 25% to 100%)” and the EC50 fell in the range of 10 to 25 µM.

`O=C(O)CCCC(=O)Nc1nc(-c2ccccc2)c(-c2ccccc2)s1` [compound 61]: the “% Activity” value was “++ (“++” means between 25% to 100%)” and the EC50 fell in the range of 10 to 25 µM.

Take `O=C(Nc1nc(-c2ccccc2)c(-c2ccccc2)s1)c1c(F)cccc1F` [compound 62]: the “% Activity” value is on record as “+++ (“+++” means >100%)” and the EC50 is less than 10 µM.

Turning to `CCc1ccccc1OCC(=O)Nc1nc2ccccc2s1` [compound 63], the “% Activity” value is reported as “+++ (“+++” means >100%)” and the half-maximal effective concentration (EC50) lay within 10 to 25 µM.

The EC50 is the concentration needed to bring the measured effect to its halfway point.
